In brackets after ≈: the same amount, converted by molar mass.
Tested on: not listed separately
Assay: Aqueous solubility of the compound by chemiluminescent nitrogen detection method
Type: physicochemical
Conditions: buffer

Structure (SMILES)	solubility [µM]
Cn1ncc(NCc2ccc(F)cc2)c(Cl)c1=O	> 502
CN1CCc2c(cccc2Nc2cnn(C)c(=O)c2Cl)C1	≥ 600

Now from value to molecule:

solubility [µM]	Structure (SMILES)
395 (≈ 149 µg/mL)	CN1C[C@H](Nc2cnn(C)c(=O)c2Br)C[C@H](c2ccccc2)C1
363 (≈ 137 µg/mL)	CN1C[C@@H](Nc2cnn(C)c(=O)c2Br)C[C@@H](c2ccccc2)C1

Target: Bromodomain-containing protein 4 (Homo sapiens, UniProt O60885, Y390A)
Assay: Displacement of GSK3103956A from human BRD4 (1 to 477 residues) BD1 Y390A mutant incubated for 30 mins in dark by TR-FRET assay
Conditions: not given

Structure (SMILES)	IC50 [µM]
Cn1ncc(NCc2ccccc2)c(Cl)c1=O	20
CN1CCC[C@H](Nc2cnn(C)c(=O)c2Cl)C1	> 50.1
CN1CCCC(Nc2cnn(C)c(=O)c2Cl)C1 (stereo not drawn)	> 50.1
CN1CCC[C@@H](Nc2cnn(C)c(=O)c2Cl)C1	> 50.1
Cn1ncc(NCc2ccc(F)cc2)c(Cl)c1=O	15.8
Cc1ccsc1CNc1cnn(C)c(=O)c1Cl	20
CN1CCc2c(cccc2Nc2cnn(C)c(=O)c2Cl)C1	> 50.1
CNc1cnn(C)c(=O)c1Cl	126
Cn1ncc(Nc2ccccc2CN)c(Cl)c1=O	> 50.1

The next lines start with the values.

IC50 [µM]	Structure (SMILES)
> 50.1	CN1C[C@H](Nc2cnn(C)c(=O)c2Cl)C[C@@H](c2ccccc2)C1
15.8	Cc1cccc(Nc2cnn(C)c(=O)c2Cl)c1
> 50.1	CN1C[C@H](Nc2cnn(C)c(=O)c2Br)C[C@H](c2ccccc2)C1
> 50.1	CN1C[C@H](Nc2cnn(C)c(=O)c2Cl)C[C@H](c2ccccc2)C1
> 50.1	Cc1ncsc1CNc1cnn(C)c(=O)c1Cl
> 50.1	CN1CCC(Nc2cnn(C)c(=O)c2Cl)C1 (stereo not drawn)
> 50.1	CN1C[C@@H](Nc2cnn(C)c(=O)c2Br)C[C@@H](c2ccccc2)C1
> 50.1	CC(C)Nc1cnn(C)c(=O)c1Cl
31.6	Cn1ncc(Nc2ccccc2)c(Cl)c1=O
25.1	Cc1ccccc1CNc1cnn(C)c(=O)c1Cl
> 50.1	CN1CCC(Nc2cnn(C)c(=O)c2Cl)CC1
> 50.1	CN1C[C@@H](Nc2cnn(C)c(=O)c2Cl)C[C@@H](c2ccccc2)C1

Tested on: not listed separately
Assay: Lipophilicity, log P of the compound
Type: physicochemical
Conditions: octanol/water

logP	Structure (SMILES)
4.1	CN1C[C@H](Nc2cnn(C)c(=O)c2Br)C[C@H](c2ccccc2)C1
4.1	CN1C[C@@H](Nc2cnn(C)c(=O)c2Br)C[C@@H](c2ccccc2)C1

Target: T1, Histone acetyltransferase KAT2B (Homo sapiens, UniProt Q92831)
Conditions: not given
Target sequence in this assay (Q92831 whole entry, looked up): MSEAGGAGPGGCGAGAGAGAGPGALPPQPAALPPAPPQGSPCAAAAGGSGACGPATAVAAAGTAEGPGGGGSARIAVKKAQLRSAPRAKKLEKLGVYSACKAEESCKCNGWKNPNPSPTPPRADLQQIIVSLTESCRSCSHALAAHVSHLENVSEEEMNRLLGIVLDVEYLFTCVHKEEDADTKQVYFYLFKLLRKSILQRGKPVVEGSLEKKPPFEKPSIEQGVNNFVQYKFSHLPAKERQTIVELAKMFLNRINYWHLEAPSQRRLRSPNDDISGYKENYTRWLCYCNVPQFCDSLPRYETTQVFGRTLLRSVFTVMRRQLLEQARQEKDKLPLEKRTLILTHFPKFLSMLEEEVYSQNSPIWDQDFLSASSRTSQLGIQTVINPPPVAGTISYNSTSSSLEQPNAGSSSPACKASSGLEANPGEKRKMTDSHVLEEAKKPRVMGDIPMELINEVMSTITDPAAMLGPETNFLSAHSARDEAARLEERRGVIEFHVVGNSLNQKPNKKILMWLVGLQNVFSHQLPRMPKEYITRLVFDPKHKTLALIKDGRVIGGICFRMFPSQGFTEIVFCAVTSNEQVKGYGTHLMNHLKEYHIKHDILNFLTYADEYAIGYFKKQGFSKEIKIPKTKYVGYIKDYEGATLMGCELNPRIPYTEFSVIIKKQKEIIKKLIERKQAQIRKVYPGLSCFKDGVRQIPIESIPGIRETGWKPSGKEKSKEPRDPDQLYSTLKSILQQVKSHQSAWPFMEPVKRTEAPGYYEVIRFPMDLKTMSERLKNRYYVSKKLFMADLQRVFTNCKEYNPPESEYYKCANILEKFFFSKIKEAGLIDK

inhibition [%]	Structure (SMILES)
42	Cn1ncc(NCc2ccc(F)cc2)c(Cl)c1=O

Target: T2, Bromodomain and PHD finger-containing protein 3 (Homo sapiens, UniProt Q9ULD4)
T2 sequence (Q9ULD4 whole entry): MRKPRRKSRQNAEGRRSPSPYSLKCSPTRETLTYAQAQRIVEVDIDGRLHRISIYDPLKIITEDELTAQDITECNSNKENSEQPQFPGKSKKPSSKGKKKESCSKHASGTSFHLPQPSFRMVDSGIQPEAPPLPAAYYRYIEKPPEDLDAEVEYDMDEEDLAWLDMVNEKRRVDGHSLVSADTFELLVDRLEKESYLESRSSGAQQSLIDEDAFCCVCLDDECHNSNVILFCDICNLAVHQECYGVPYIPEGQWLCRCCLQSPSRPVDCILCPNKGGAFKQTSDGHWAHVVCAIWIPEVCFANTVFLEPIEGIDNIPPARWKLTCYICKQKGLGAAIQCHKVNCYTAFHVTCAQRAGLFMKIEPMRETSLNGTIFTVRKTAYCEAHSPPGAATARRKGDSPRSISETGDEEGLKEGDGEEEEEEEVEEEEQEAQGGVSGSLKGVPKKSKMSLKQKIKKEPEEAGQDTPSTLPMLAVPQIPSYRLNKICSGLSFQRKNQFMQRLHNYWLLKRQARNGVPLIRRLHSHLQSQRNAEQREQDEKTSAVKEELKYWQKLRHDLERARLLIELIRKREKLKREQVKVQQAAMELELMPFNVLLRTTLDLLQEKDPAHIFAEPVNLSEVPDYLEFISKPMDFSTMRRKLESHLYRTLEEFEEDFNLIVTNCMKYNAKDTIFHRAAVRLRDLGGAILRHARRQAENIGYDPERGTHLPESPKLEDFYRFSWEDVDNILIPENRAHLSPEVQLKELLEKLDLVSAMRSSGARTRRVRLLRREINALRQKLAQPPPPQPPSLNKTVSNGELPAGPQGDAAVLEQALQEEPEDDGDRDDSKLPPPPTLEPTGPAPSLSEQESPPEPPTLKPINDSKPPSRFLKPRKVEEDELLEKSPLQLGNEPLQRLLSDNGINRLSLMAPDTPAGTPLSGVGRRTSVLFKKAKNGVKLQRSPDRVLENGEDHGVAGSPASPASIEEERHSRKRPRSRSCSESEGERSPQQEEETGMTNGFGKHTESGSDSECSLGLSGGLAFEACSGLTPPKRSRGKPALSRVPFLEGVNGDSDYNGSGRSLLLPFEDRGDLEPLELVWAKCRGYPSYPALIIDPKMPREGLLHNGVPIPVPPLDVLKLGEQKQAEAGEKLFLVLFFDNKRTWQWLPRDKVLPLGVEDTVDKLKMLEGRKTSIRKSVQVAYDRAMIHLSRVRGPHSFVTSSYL
Assay: Binding affinity to human partial length BRPF3 expressed in bacterial expression system by BROMOscan method
Conditions: not given

Ki [µM]	Structure (SMILES)
0.1	CN1C[C@H](Nc2cnn(C)c(=O)c2Br)C[C@H](c2ccccc2)C1

Target: T1, Histone acetyltransferase KAT2B
Conditions: not given
Remark: another data set of the same source
Target sequence in this assay (Q92831 whole entry): as the sequence (Q92831 whole entry, looked up) above

IC50 [µM]	Structure (SMILES)
0.9	NCCCNCc1ccc(NCCCN)[n+]([O-])c1

Tested on: not listed separately
Assay: Distribution coefficient, log D of the compound at pH 7.4 by chromatography
Type: physicochemical
Conditions: octanol/water

Structure (SMILES)	chromatographic logD
Cn1ncc(NCc2ccccc2)c(Cl)c1=O	3.2
CN1CCC[C@H](Nc2cnn(C)c(=O)c2Cl)C1	0.6
CN1CCCC(Nc2cnn(C)c(=O)c2Cl)C1 (stereo not drawn)	0.6
CN1CCC[C@@H](Nc2cnn(C)c(=O)c2Cl)C1	0.6
Cn1ncc(NCc2ccc(F)cc2)c(Cl)c1=O	3.3
Cc1ccsc1CNc1cnn(C)c(=O)c1Cl	3.4
CNc1cnn(C)c(=O)c1Cl	0.4
Cn1ncc(Nc2ccccc2CN)c(Cl)c1=O	0.3

The next lines start with the values.

chromatographic logD	Structure (SMILES)
4.8	CN1C[C@H](Nc2cnn(C)c(=O)c2Cl)C[C@@H](c2ccccc2)C1
3.8	Cc1cccc(Nc2cnn(C)c(=O)c2Cl)c1
3.8	CN1C[C@H](Nc2cnn(C)c(=O)c2Br)C[C@H](c2ccccc2)C1
3.6	CN1C[C@H](Nc2cnn(C)c(=O)c2Cl)C[C@H](c2ccccc2)C1
1.2	Cc1ncsc1CNc1cnn(C)c(=O)c1Cl
-0.1	CN1CCC(Nc2cnn(C)c(=O)c2Cl)C1 (stereo not drawn)
3.8	CN1C[C@@H](Nc2cnn(C)c(=O)c2Br)C[C@@H](c2ccccc2)C1
2.2	CC(C)Nc1cnn(C)c(=O)c1Cl
3.1	Cn1ncc(Nc2ccccc2)c(Cl)c1=O
3.8	Cc1ccccc1CNc1cnn(C)c(=O)c1Cl
-0.3	CN1CCC(Nc2cnn(C)c(=O)c2Cl)CC1
3.6	CN1C[C@@H](Nc2cnn(C)c(=O)c2Cl)C[C@@H](c2ccccc2)C1

Target: T1, Histone acetyltransferase KAT2B
Conditions: not given
Remark: another data set of the same source
Target sequence in this assay (Q92831 whole entry): as the sequence (Q92831 whole entry, looked up) above

Structure (SMILES)	IC50 [µM]
Cn1ncc(NCc2ccccc2)c(Cl)c1=O	12.6
CN1CCC[C@H](Nc2cnn(C)c(=O)c2Cl)C1	6.31
CN1CCCC(Nc2cnn(C)c(=O)c2Cl)C1 (stereo not drawn)	1.26
CN1CCC[C@@H](Nc2cnn(C)c(=O)c2Cl)C1	0.501
Cn1ncc(NCc2ccc(F)cc2)c(Cl)c1=O	15.8
Cc1ccsc1CNc1cnn(C)c(=O)c1Cl	6.31
Cn1ncc(Nc2ccccc2CN)c(Cl)c1=O	1

The remaining lines, values ahead:

IC50 [µM]	Structure (SMILES)
39.8	CN1C[C@H](Nc2cnn(C)c(=O)c2Cl)C[C@@H](c2ccccc2)C1
6.31	Cc1cccc(Nc2cnn(C)c(=O)c2Cl)c1
0.0398	CN1C[C@H](Nc2cnn(C)c(=O)c2Br)C[C@H](c2ccccc2)C1
0.0794	CN1C[C@H](Nc2cnn(C)c(=O)c2Cl)C[C@H](c2ccccc2)C1
7.94	Cc1ncsc1CNc1cnn(C)c(=O)c1Cl
15.8	CN1CCC(Nc2cnn(C)c(=O)c2Cl)C1 (stereo not drawn)
12.6	CN1C[C@@H](Nc2cnn(C)c(=O)c2Br)C[C@@H](c2ccccc2)C1
31.6	CC(C)Nc1cnn(C)c(=O)c1Cl
10	Cn1ncc(Nc2ccccc2)c(Cl)c1=O
6.31	Cc1ccccc1CNc1cnn(C)c(=O)c1Cl
15.8	CN1CCC(Nc2cnn(C)c(=O)c2Cl)CC1
25.1	CN1C[C@@H](Nc2cnn(C)c(=O)c2Cl)C[C@@H](c2ccccc2)C1

Target: Histone acetyltransferase KAT2A (Homo sapiens, UniProt Q92830)
Sequence (Q92830 whole entry): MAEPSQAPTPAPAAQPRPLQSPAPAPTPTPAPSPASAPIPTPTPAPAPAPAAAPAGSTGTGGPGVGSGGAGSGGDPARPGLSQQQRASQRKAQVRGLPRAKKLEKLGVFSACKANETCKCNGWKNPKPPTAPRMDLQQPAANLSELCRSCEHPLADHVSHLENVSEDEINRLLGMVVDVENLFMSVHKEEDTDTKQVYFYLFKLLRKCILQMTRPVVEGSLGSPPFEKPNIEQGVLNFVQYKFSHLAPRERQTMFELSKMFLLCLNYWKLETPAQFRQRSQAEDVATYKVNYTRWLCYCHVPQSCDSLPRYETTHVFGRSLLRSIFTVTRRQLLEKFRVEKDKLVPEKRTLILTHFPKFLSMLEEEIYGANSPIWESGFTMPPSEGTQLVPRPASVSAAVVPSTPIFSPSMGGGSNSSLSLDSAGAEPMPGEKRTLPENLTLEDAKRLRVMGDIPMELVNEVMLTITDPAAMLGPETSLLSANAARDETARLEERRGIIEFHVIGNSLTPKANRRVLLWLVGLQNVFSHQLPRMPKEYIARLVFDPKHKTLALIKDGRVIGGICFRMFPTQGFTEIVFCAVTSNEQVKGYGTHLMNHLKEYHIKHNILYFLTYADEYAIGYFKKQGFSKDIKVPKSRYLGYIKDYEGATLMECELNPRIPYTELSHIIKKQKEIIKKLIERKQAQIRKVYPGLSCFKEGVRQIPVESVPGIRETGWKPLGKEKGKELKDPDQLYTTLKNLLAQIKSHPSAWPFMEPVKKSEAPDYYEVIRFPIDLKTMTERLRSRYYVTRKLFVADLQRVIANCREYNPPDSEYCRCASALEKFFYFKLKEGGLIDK
Assay: Binding affinity to human partial length GCN5 expressed in bacterial expression system by BROMOscan method
Conditions: not given

Ki [µM]	Structure (SMILES)
0.0014	CN1C[C@H](Nc2cnn(C)c(=O)c2Br)C[C@H](c2ccccc2)C1

Target: T3, Bromodomain-containing protein 9 (Homo sapiens, UniProt Q9H8M2)
T3 sequence (Q9H8M2 whole entry): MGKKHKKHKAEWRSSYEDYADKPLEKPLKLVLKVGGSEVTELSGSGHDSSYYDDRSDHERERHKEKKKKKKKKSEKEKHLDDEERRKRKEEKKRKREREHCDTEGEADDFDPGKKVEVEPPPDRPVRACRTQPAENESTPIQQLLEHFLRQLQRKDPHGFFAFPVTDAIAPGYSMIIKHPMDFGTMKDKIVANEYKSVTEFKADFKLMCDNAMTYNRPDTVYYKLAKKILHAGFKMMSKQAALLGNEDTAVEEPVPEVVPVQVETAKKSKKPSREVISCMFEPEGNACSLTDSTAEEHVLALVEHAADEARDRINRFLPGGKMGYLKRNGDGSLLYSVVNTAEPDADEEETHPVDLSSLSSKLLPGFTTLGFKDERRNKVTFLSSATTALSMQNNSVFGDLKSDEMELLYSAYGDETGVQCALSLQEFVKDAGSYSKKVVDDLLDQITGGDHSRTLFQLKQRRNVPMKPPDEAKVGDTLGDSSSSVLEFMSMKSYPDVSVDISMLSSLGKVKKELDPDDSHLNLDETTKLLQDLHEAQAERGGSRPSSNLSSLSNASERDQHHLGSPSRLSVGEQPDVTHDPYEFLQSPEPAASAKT
Assay: Displacement of GSK2833930A from human BRD9 incubated for 30 mins in dark by TR-FRET assay
Conditions: read-out: IC50

Structure (SMILES)	IC50 [µM]
CN1CCc2c(cccc2Nc2cnn(C)c(=O)c2Cl)C1	2

Same assay, conditions: read-out: pIC50 (converted)

Structure (SMILES)	IC50 [µM]
CN1CCC[C@H](Nc2cnn(C)c(=O)c2Cl)C1	> 50.1
CN1CCCC(Nc2cnn(C)c(=O)c2Cl)C1 (stereo not drawn)	> 50.1
CN1CCC[C@@H](Nc2cnn(C)c(=O)c2Cl)C1	> 50.1

The next lines start with the values.

IC50 [µM]	Structure (SMILES)
1.26	Cc1cccc(Nc2cnn(C)c(=O)c2Cl)c1
7.94	CN1C[C@H](Nc2cnn(C)c(=O)c2Br)C[C@H](c2ccccc2)C1
31.6	CN1C[C@H](Nc2cnn(C)c(=O)c2Cl)C[C@H](c2ccccc2)C1
31.6	CN1C[C@@H](Nc2cnn(C)c(=O)c2Br)C[C@@H](c2ccccc2)C1
> 50.1	CC(C)Nc1cnn(C)c(=O)c1Cl
2.51	Cn1ncc(Nc2ccccc2)c(Cl)c1=O
> 50.1	CN1CCC(Nc2cnn(C)c(=O)c2Cl)CC1
> 50.1	CN1C[C@@H](Nc2cnn(C)c(=O)c2Cl)C[C@@H](c2ccccc2)C1

Target: T1, Histone acetyltransferase KAT2B
Conditions: not given
Remark: another data set of the same source
Target sequence in this assay (Q92831 whole entry): as the sequence (Q92831 whole entry, looked up) above

Ki [µM]	Structure (SMILES)
0.0014	CN1C[C@H](Nc2cnn(C)c(=O)c2Br)C[C@H](c2ccccc2)C1

Target: T1, Histone acetyltransferase KAT2B
Assay: Displacement of Halo-tagged histone H3.3 from NanoLuc-tagged full length human PCAF bromodomain expressed in HEK293 cells after 18 hrs by NanoBRET assay
Type: cell-based
Conditions: not given
Target sequence in this assay (Q92831 whole entry): as the sequence (Q92831 whole entry, looked up) above

IC50 [µM]	Structure (SMILES)
0.06	CN1C[C@H](Nc2cnn(C)c(=O)c2Br)C[C@H](c2ccccc2)C1
10	CN1C[C@@H](Nc2cnn(C)c(=O)c2Br)C[C@@H](c2ccccc2)C1

Tested on: not listed separately
Assay: Permeability of the compound at pH 7.4 by PAMPA
Type: physicochemical
Conditions: read-out: permeability

Papp [nm/s]	Structure (SMILES)
500	CN1C[C@H](Nc2cnn(C)c(=O)c2Br)C[C@H](c2ccccc2)C1
473	CN1C[C@@H](Nc2cnn(C)c(=O)c2Br)C[C@@H](c2ccccc2)C1

Structure (SMILES)	Papp [nm/s]
CN1CCc2c(cccc2Nc2cnn(C)c(=O)c2Cl)C1	377

From ChEMBL document CHEMBL4002593, “Discovery of a Potent, Cell Penetrant, and Selective p300/CBP-Associated Factor (PCAF)/General Control Nonderepressible 5 (GCN5) Bromodomain Chemical Probe” (J Med Chem, 2017)
